Measured values as given in US6645514B1, “Increasing skin cell renewal with water-soluble Vitamin E” (Access Business Group International, LLC, priority 2002, dated 2003).

Assays:
skin [1] = assay: skin cell-renewal (exfoliation) rate after topical application; assay type: in vivo, human
Experimental: (§1) Skin irritation, expressed as a “Sting” percentage, was also determined. The increase in skin cell renewal rate and irritation level was measured substantially according to the procedure described in Soap/Cosmetics/Chemical Specialties for September 1993 at pp. 54-58 and 76.

skin [2] = assay: skin irritation level (Sting %) after topical application; assay type: in vivo, human
Experimental: as §1

[3] = cited from earlier work
[4] = 0.5 wt % active, composition pH 5.65
[5] = 1.0 wt % active, composition pH 7.21

| Compound | Cell-Renewal Rate % (skin [1]; 5 wt % active, composition pH 3) [%] | Cell-Renewal Rate % (skin [1]; [4]) [%] | Cell-Renewal Rate % (skin [1]; [5]) [%] | Irritation Level (Sting %) (skin [2]; [4]) [%] | Irritation Level (Sting %) (skin [2]; [5]) [%] | irritation to the skin relative to Lactic Acid (skin [2]; at pH 7.21, relative to Lactic Acid) | times less irritating to the skin than Lactic Acid (skin [2]; relative to Lactic Acid 5 wt %, pH 3) | solubility in water [3] |
| --- | --- | --- | --- | --- | --- | --- | --- | --- |
| CC(O)C(=O)O (centres unmarked) [Lactic Acid, reference compound] | 31.7 | – | – | – | – | – | – | – |
| Cc1c(C)c2c(c(C)c1OP(=O)(O)O)CC[C@@](C)(CCC[C@H](C)CCC[C@H](C)CCCC(C)C)O2 [VEP, Sodium Vitamin E Phosphate] | – | 15.2 | 16.6 | 17.3 | 10.7 | about one-twentieth | at least 4.5 times | soluble in water |
